The results in this text go back to patent US6375969B1, “Broadcast carriers for pesticides and their use” (priority 1996, dated 2002).

A short description of this data set: Volatile materials test in ventilating oven. In kind it is physicochemical. To be noted: after 2 hours at 141° F. (=60.5° C.) in a ventilating oven. How it is done: The moisture content of raw material Celite 500 is 3.7 weight percent. So, the weight of raw material Celite 500 is close to the dry weight of Celite 500. According to the product specifications of Supragil MNS/90, Soprophor S/40-P, and Supragil WP, the moisture contents of these components are no higher than 2 weight percent. Also, samples of chlorpyrifos technical were tested for volatile materials in a ventilating oven. The weight loss after 2 hours at 141° F. (=60.5° C.) was only 0.6 weight percent. […] Therefore, the dry spreadable granular product as manufactured above contains approximately 2.0 weight percent chlorpyrifos.

As for `CCOP(=S)(OCC)Oc1nc(Cl)c(Cl)cc1Cl` [chlorpyrifos technical, Chlorpyrifos], the “weight loss (volatile materials)” value is reported as 0.6 weight percent.
